Assays:
[1] = system: patients with TRD; assay: Sedation by MOAA/s in SPRAVATO clinical trials (label); assay type: in vivo, human; settings: after dosing
Procedure: In clinical trials, 49% to 61% of SPRAVATO-treated patients developed sedation based on the Modified Observer's Alertness/Sedation scale (MOAA/s) [see Adverse Reactions (6.1)], and 0.3% of SPRAVATO-treated patients experienced loss of consciousness (MOAA/s score of 0).
Sedation was evaluated by adverse event reports and using the Modified Observer's Alertness/Sedation scale (MOAA/s). In the MOAA/s scale, 5 means “responds readily to name spoken in normal tone” and 0 means “no response after painful trapezius squeeze.” Any decrease in MOAA/s from pre-dose is considered to indicate presence of sedation, and such a decrease occurred in a higher number of patients on esketamine than placebo during the short-term trials (Table 4).

[2] = system: subjects with TRD; settings: IND or OP/MA phases; among the 76 subjects
Excerpt: The efficacy and safety analyses are based on the full (IND) analysis set and the full (OP/MA) analysis set. The full (IND) analysis set is defined as all subjects who receive at least 1 dose of intranasal study medication or 1 dose of oral antidepressant in the open-label IND phase (for direct-entry and transferred-entry non-responder subjects). The full (OP/MA) analysis is defined as all subjects who receive at least 1 dose of intranasal study medication or 1 dose of oral antidepressant in the OP/MA phase. Safety variables include cognition function over time, treatment-emergent adverse events (TEAEs), including TEAEs of special interest, vital signs over time, Clinician-Administered Dissociative Symptom Scale (CADDS) over time, and Modified Observer's Assessment of Alertness/Sedation (MOAA/S) score≤3.

CN[C@]1(c2ccccc2Cl)CCCCC1=O [esketamine, (S)-2-(2-chlorophenyl)-2-(methylamino)cyclohexanone]
Sedative effects typically resolved by [1]: ≤ 1.5 h
Subjects with an AE leading to discontinuation of intranasal esketamine considered related to esketamine [2]: 51 subjects

From US11980596B2 (priority 2017, dated 2024)
